# Assay results: patent US12721985B2, “Microneedle patch system for transdermal drug delivery” (INDUSTRY-ACADEMIC COOPERATION FOUNDATION GYEONGSANG …, priority 2021, dated 2026)
# Test: Drug blood concentration pattern in rats after donepezil administration
# Conditions: rat, in vivo
# Description: More specifically, 3 mg/kg of donepezil was administered orally, 1 mg/kg of donepezil was administered subcutaneously, or 43 mg/kg of donepezil was administered using the microneedle patch prepared in the above example to rats, and the drug blood concentration patterns were compared.
# Next, rats were administered donepezil at different concentrations of 43 mg/kg, 80 mg/kg, and 125 mg/kg using the microneedle patch prepared in the above example, respectively, and the drug blood concentration patterns were compared.
# Next, after administering 80 mg/kg of donepezil to rats using the microneedle patch prepared in the above example, the drug blood concentration pattern was compared between the case where the needle was removed in 1 hour and the case where the needle was applied for 3 days.
smiles,measurement,setting,value
COc1cc2c(cc1OC)C(=O)C(CC1CCN(Cc3ccccc3)CC1)C2 (centres unmarked) [donepezil],time in which drug blood concentration was very low,"po, 3 mg/kg",about 1 day
same,time in which drug blood concentration was very low,"sc, 1 mg/kg",about 1 day
